In US10166237B2, “Compounds and methods for inducing chondrogenesis” (The Scripps Research Institute, priority 2011, dated 2019):

B1: TGFβ3: "known inducers of chondrogenic differentiation (TGFβ3, BMP7 or BMP2)" (protein, UniProt P10600 301-412, looked up)
Transforming growth factor …: ALDTNYCFRNLEENCCVRPLYIDFRQDLGWKWVHEPKGYYANFCSGPCPYLRSADTTHSTVLGLYNTLNPEASASPCCVPQDLEPLTILYYVGRTPKVEQLSNMVVKSCKCS

Experiments:
[1] = tested on: human mesenchymal stem cells (hMSCs); assay: chondrogenic nodule formation by hMSCs (high throughput screen); format: cell-based; settings: Homo sapiens, Mesenchymal stem cells; first value of the cell (before the slash); read-out: CHONDROGENIC μM EC50
Method: The primary screening assay was based upon the development of chondrogenic nodules. Chondrocytes can grow in monolayer in vitro, but to more closely mimic their native environment in the joint, the cells are routinely cultured in non-adherent conditions such as in pellet cultures or alginate bead suspensions.
In the actual screen of a library of 22,000 structurally diverse heterocycles, 10^4 primary hMSCs were plated in 384 well plates in serum free DMEM. The cells were treated with 5 μM of each compound and incubated for 4 days. […] To facilitate high throughput imaged-based detection, the chondrogenic nodules were stained with […]. The Nile Red stained nodules were quantified on an Acumen eX3 (high content imaging device) by excitation with a 488 laser for rapid detection of the nodules.
Primary hMSCs grown in a 96 well Greiner plates (50,000/well) were incubated for 4 days in the presence of the 5 uM of each DMSO or 100 nM of PRO1. On day 4, the cells were fixed with 4% formalin for 10 minutes, washed and stained with 1 μg/ml of Rhodamine B for 2 hours at room temperature.

[2] = tested on: primary bovine chondrocytes; assay: inhibition of cytokine-induced nitric oxide release (Greiss reaction); format: cell-based; settings: Bos taurus, Chondrocyte; second value of the cell (after the slash); TNFα and oncostatin M, 48 hours; read-out: NO INHIBTION μM IC50
From the text: (§1) In the screen, hMSCs were used as a surrogate to future targeting of the resident MSCs with the cartilage joint. It was in that setting upon which we identified PRO1. In a joint injury, the primary cell type a therapeutic would have contact with is the chondrocyte. Although cartilage or chondrocyte-targeted screening has not lead to the development of a successful drug modifying osteoarthritis drug (DMOAD) to date, it is believed that a stem cell-based therapeutic would protect and even repair the existing chondrocytes. Therefore, protection of the articular chondrocytes and cartilage from a mature bovine knee was assessed. PRO1 and its analogues were incubated with primary bovine chondrocytes or cartilage explants cultures grown in the presence of TNFα and oncostatin M to mimic the cytokine-induced damage that can occur during OA. In the presence of the cytokine cocktail, in vitro cultured primary chondrocytes released 4-5 fold more nitric oxide (NO) than the untreated chondrocytes (50 μM vs 10 μM) as measured by the Greiss reaction. In cells treated with the cytokine cocktail and PRO1, the small molecule could effectively block the release of NO by up to 70% FIG. 2C). Similarly, in ex vivo treated cartilage explants, cytokine-induced release of glycosaminoglycans (GAG) was reduced by up to 60% by PRO1 (FIG. 2D). Finally, hMSC were grown in pellet culture for 21 days.
(§2) Primary hMSCs were plated (10,000/well) in 384-well plates and cultured for 18 days. The cells were fixed with 4% formalin, permeabilized with triton (0.5%), digested with 0.5 mg/ml collagenase II to unwind the collagen fibrils, and then immunostained with an antibody recognizing type II collagen. DAPI (2 μg/ml) was added to visualize the nuclei. The chondrogenic nodules stained positive for type II collagen but lacked expression of type X collagen and osteocalcin, markers for chondrocyte hypertrophy and osteoblasts, respectively (not shown). 10,000 hMSCs (passages 3-5) were plated in Greiner 384-well low-bottom plates on day 1. The cells were allowed to adhere and stimulated for 48 hrs (days 2-3) with the indicated stimuli in MSC growth media (Millipore). The media was then removed and replaced with serum-free DMEM for an additional 16 days. This media was replenished on days 10 and 15 of the assay. Primary bovine chondrocytes were isolated from the articular surfaces from mature knees. After one week of culture, 8,500 cells were trypsinized and plated in Greiner 384-well white clear-bottom plates in growth media. […] 20 μl of the supernatant was mixed with 20 μl of the Greiss reagent and quantitated at 540 nm as described by the Promega kit instructions. Bovine cartilage explants (cut in circular explants in a 96 well plate) were cultured in the presence of 20 ng/ml TNFα and 10 ng/ml oncostatin M to induce GAG release for 72 hours (FIG. 2D). PRO1 was added at the indicated concentrations during the entire 72 hrs. […] Parafin sections were hydrated, incubated in low pH Antigen unmasking solution (Vector) at 90 C for 10 minutes, permeabilized with 0.1% collagenase II (only for the sections stained with type II collagen) for 10 minutes, blocked with CAS block for 10 minutes and then incubated with the primary antibody (type II collagen, aggrecan or Timp1) antibody (Abcam) overnight at 4 C. The antigens were visualized through standard ABC detection methods and developed with DAB. Representative of 3 sections stained/treatment group (independent experiments).

[3] = tested on: hMSCs; assay: type II collagen expression in hMSC cultures (18 day assay); format: cell-based, human; settings: for EC50: Homo sapiens
Method: The chondrogenic differentiation event was initiated quickly even though a fully differentiated chondrocyte phenotype cannot be assessed prior to 14 days in culture. In an 18 day assay, compound treatment was only required for the first 48 hrs and followed by removal and replacement of the media (in the absence of stimuli, FIG. 2B). The promotion of chondrogenic differentiation was not altered or enhanced upon longer treatment with the stimuli (data not shown).
as §2

[4] = tested on: bovine cartilage explants; assay: cytokine-induced GAG release from cartilage explants ex vivo; format: cell-based; settings: 1 μM (or less); compared with PRO1
From the text: as §1, with “In cells treated with the cytokine cocktail and PRO1, the small molecule could effectively block the release of NO by up to 70% FIG. 2C). Similarly, in ex vivo treated cartilage explants, cytokine-induced release of glycosaminoglycans (GAG) was reduced by up to 60% by PRO1 (FIG. 2D). Finally, hMSC were grown in pellet culture for 21 days.” left out
Primary hMSCs were plated (10,000/well) in 384-well plates and cultured for 18 days. […] 20 μl of the supernatant was mixed with 20 μl of the Greiss reagent and quantitated at 540 nm as described by the Promega kit instructions. […]

Molecule	EC50 [1] [µM]	IC50 [2] [µM]	EC50 [3] [µM]	induction of chondrogenic differentiation of hMSCs ([3]; compared with known inducers TGFβ3, BMP7 or BMP2, FIG. 2B)	chondro-protective activities [4]
O=C(O)c1cc(F)ccc1C(=O)Nc1ccc(-c2ccccc2)cc1 [AKT-F]	> 10	> 10	> 10	–	–
O=C(O)c1ccccc1C(=O)Nc1ccc(N2CCOCC2)cc1 [LK6, 2-((4-morpholinophenyl)carbamoyl)benzoic acid]	9.1	> 10	> 10	–	–
CCNC(=O)c1ccccc1C(=O)O [AKT-NHEt]	2.01	> 10	> 10	–	–
O=C(O)c1ccccc1C(=O)Nc1ncc(-c2ccc(F)c(F)c2)s1 [LK35]	> 10	0.03	> 10	–	–
O=C(O)c1ccccc1C(=O)Nc1ccc(CCO)cc1 [Compound L11c, 2-((4-(2-hydroxyethyl)phenyl)carbamoyl)benzoic acid]	0.125	> 10	> 10	–	–
Cc1ccc(C(=O)Nc2ccc(-c3ccccc3)cc2)c(C(=O)O)c1 [AKT-Me]	> 10	> 10	> 10	–	–
O=C(O)c1cc(O)ccc1C(=O)Nc1ccc(-c2ccccc2)cc1 [LK22b, 2-([1,1′-biphenyl]-4-ylcarbamoyl)-5-hydroxybenzoic acid]	0.0046	> 10	> 10	–	–
N#CCc1ccc(NC(=O)c2ccccc2C(=O)O)cc1 [Compound L13]	> 10	> 10	> 10	–	–
CC(C)CNC(=O)c1ccccc1C(=O)Nc1ccc(-c2ccccc2)cc1 [AKT-iPr]	0.0015	> 10	6.98	–	–
Cc1ccc(C(=O)Nc2ccc(C#N)cc2)cc1 [LK20b]	0.014	> 10	> 10	–	–
COc1ccc(NC(=O)c2ccccc2C(=O)O)cc1 [Compound L2, 2-((4-methoxyphenyl)carbamoyl)benzoic acid]	> 10	–	> 10	–	–
Cc1ccc(NC(=O)c2ccccc2C(=O)O)c(C(=O)O)c1 [LK60, 2-(2-carboxybenzamido)-5-methylbenzoic acid]	0.014	1.25	–	–	–
N#Cc1ccc(NC(=O)c2ccccc2C(=O)O)cc1 [AKT-CN]	0.137	0.03	0.108	more potent and efficient	–
Cc1cncc(NC(=O)c2ccccc2C(=O)O)c1 [Compound L5]	0.6	2.4	> 10	–	–
NS(=O)(=O)c1ccc(NC(=O)c2ccccc2C(=O)O)cc1 [LK8]	9.1	> 10	> 10	–	–
O=C(O)c1ccccc1C(=O)Nc1ccc2c(c1)OCO2 [LK62, 2-(benzo[1,3]dioxol-5-ylcarbamoyl)benzoic acid]	3.36	0.145	–	–	–
O=C(O)c1ccc(NC(=O)c2ccccc2C(=O)O)cc1 [LK53]	0.005	0.146	–	–	–

Molecule	EC50 [1] [µM]	IC50 [2] [µM]	EC50 [3] [µM]	induction of chondrogenic differentiation of hMSCs ([3]; compared with known inducers TGFβ3, BMP7 or BMP2, FIG. 2B)	chondro-protective activities [4]
O=C(O)c1ccccc1C(=O)Nc1ccccc1 [LK49]	5	> 10	–	–	–
[N-]=[N+]=Nc1ccc(C(=O)NCCCNC(=O)c2ccccc2C(=O)NNC(=O)CCOCCC2SCC3NC(=O)NC32)c(O)c1 (stereo not shown) [AKT-azide]	–	0.12	0.654	–	–
C[C@@H](C(=O)Nc1ccc(Cl)cn1)N1Cc2ccccc2C1=O [SMA-1*]	> 10	0.04	0.37	–	–
O=C(O)c1ccccc1C(=O)Nc1ccc(Nc2ccccc2)cc1 [LK7]	> 10	> 10	> 10	–	–
O=C(O)c1ccccc1C(=O)Nc1ccc([N+](=O)[O-])cn1 [LK59, 2-((5-nitropyridin-2-yl)carbamoyl)benzoic acid]	0.371	0.491	–	–	–
O=C(O)c1ccc(CNC(=O)c2ccccc2C(=O)O)cc1 [LK64]	0.398	0.981	–	–	–
CNC(=O)c1ccccc1C(=O)O [AKT-NHMe]	2.7	0.0046	0.24	–	–
O=C(O)c1ccccc1C(=O)Nc1ccc(C(F)(F)F)cc1 [Compound L4, 2-((4-(trifluoromethyl)phenyl)carbamoyl)benzoic acid]	9.5	22.1	11.1	–	–
O=C(O)c1ccccc1C(=O)Nc1ccc(I)cc1 [Compound L11a, 2-((4-iodophenyl)carbamoyl)benzoic acid]	> 10	> 10	> 10	–	–
O=C(O)c1ccccc1C(=O)Nc1ccc(-c2ccccc2)cc1 [LK18b]	0.0015	2.7	0.05	–	–
O=C(O)c1ccccc1C(=O)Nc1ccc(F)cc1	> 10	0.0125	–	–	–
O=C(O)c1ccccc1C(=O)Nc1ccc(CCCc2ccccn2)cc1 [LK15, 2-((4-(3-(pyridin-2-yl)propyl)phenyl)carbamoyl)benzoic acid]	0.12	> 10	> 10	–	–
CN1C(=O)c2ccc(NC(=O)c3ccccc3C(=O)O)cc2C1=O [LK61]	0.052	1.69	–	–	–
Cc1ccc(NC(=O)c2ccccc2C(=O)O)cn1 [Compound L6]	> 10	> 10	> 10	–	–
O=C(O)c1ccccc1C(=O)Nc1ccc(CO)cc1 [AKT-CH2OH, 2-((4-(hydroxymethyl)phenyl)carbamoyl)benzoic acid]	0.04	0.27	8.46	–	–
O=C(O)c1cc(S(=O)(=O)c2ccc(C(=O)Nc3ccc(-c4ccccc4)cc3)c(C(=O)O)c2)ccc1C(=O)Nc1ccc(-c2ccccc2)cc1 [LK4]	3.8	> 10	33.3	–	–
B1	–	–	–	–	did not have the same degree of chondro-protective activities
